Measurements taken from patent US4001327A, “Novel quaternary salts and method” (The Regents of the University of Michigan, priority 1973, dated 1977).

Legend:
[1] = described by Lucchesi et al. 1968; undesirable side-effect of prior art compound; cited from earlier work
mongrel dogs [2] = test: Epicardial ST segment elevation (ΣST) after 10-minute coronary artery branch occlusion in anesthetized dogs; format: in vivo, dog; details: 10 mg./kg. intravenously 15 minutes prior to the second 10-minute occlusion; control ΣST 34.8 ± 4.9 mV
Protocol: A group of 10 mongrel dogs, weighing 11-19 kg., is anesthetized by the intravenous administration of 30 mg./kg. of pentobarbital sodium and breathing maintained by means of a Harvard respirator. A thoractomy is performed through the fifth left intercostal space; the heart is suspended in a pericardial cradle; a branch of the left anterior descending coronary artery is dissected free and a suture placed under that vessel. Occlusion of that arterial branch is accomplished by passing the free ends of the suture through a short section of polyethylene tubing and pressing the tubing against the vessel while exerting traction on the free ends of the suture. Termination of the occlusion is achieved by releasing the suture and pulling the tube away from the vessel.
The degree of myocardial ischemic injury resulting from occlusion of the artery is determined by the epicardial electrocardiographic method described by Maroko et al., Circulation, 43, 67-82 (1971). […] All surface collateral vessels are ligated and the unipolar electrograms from the six epicardial leads and the Lead II electrocardiogram are recorded on a Grass model 7 polygraph. […]
The reproducibility of the method with respect to the magnitude of ΣST is determined by successive 10-minute occlusions in a group of five dogs. […]

mongrel dogs [3] = test: Myocardial oxygen consumption, left coronary arteries perfused with arterial blood at constant pressure, anesthetized dogs; format: in vivo, dog; details: 10 mg./kg. intravenously prior to perfusion; 5 dogs; mean control 11.7 ± 1.9; statistically significant (p<0.05) reduction
Protocol: A group of 5 mongrel dogs is anesthetized and thoractomized by the procedure described in the preceding assay and the left anterior descending and circumflex coronary arteries are cannulated and perfused with arterial blood at a constant pressure. Coronary arterial and venous blood samples are collected and their oxygen content measured. Myocardial oxygen consumption is calculated and expressed as ml./min./100 g. of the left ventricle. the mean control oxygen consumption in these 5 animals is 11.7 ± 1.9.
In a second group of 5 animals, prepared as described above, the selected dose of the test compound is administered intravenously prior to perfusion. The myocardial oxygen consumption is calculated and compared with the corresponding value in the control group. A compound is rated active if it effects a statistically significant reduction in the myocardial oxygen consumption observed in the control group.

[4] = tested on: excised hearts perfused by donor dog; test: Oxygen consumption of excised hearts perfused with whole blood from a donor dog; format: in vivo; details: 10 mg./kg. intravenously to 5 donor dogs; value before treatment 3.1 ± 0.2; statistically significant (p<0.01) reduction
Protocol: In a separate assay, hearts are excised from anesthetized animals and perfused via the aorta at a constant pressure with oxygenated whole blood supplied by a donor dog connected to the heart. Oxygen consumption is calculated and expressed as ml./min./100 g. of the myocardium. The donor dogs are then treated intravenously with the selected dose of the test compound and the mean oxygen consumption value again calculated. The test compound is rated active if it effects a statistically significant reduction in that value.

SMILES | local anesthetic activity [1] | sum of the ST segment elevation in the six epicardial leads (ΣST) (mongrel dogs [2]) [mV] | myocardial oxygen consumption (mongrel dogs [3]) | mean oxygen consumption value [4]
CC[N+](C)(CC)CC(O)COc1cccc2ccccc12 (stereo not shown) [1-(N,N-diethylamino)-3-(1-naphthoxy)propan-2-ol methiodide] | local anesthetic activity | – | – | –
CC(C)[N+](C)(C)CC(O)COc1cccc2ccccc12 (stereo not shown) [1-(N-isopropyl-N-methylamino)-3-(1-naphthoxy)propan-2-ol methochloride] | – | 11.3 ± 2.1 | 7.6 ± 1.1 ml./min./100 g. of the left ve | 2.1 ± 0.1 ml./min./100 g. of the myocard
